Experimental data as given in patent US9901621B2, “Composition for treating hyperlipidemia comprising oxyntomodulin derivative” (HANMI PHARM. CO., LTD., priority 2012, dated 2018).
pEC50: −log10 of the molar value. Where a SMILES comes first, the peptide text is derived from it. [ ]: non-standard residue; d: D form. Aib = CC(C)(N)C(=O)O

Key:
[1] = molecular target: T1, human glucagon receptor (Homo sapiens, UniProt P47871); assay: cAMP response in CHO cells expressing glucagon receptor (CHO/GCGR); assay type: cell-based
T1 construct: Using a portion corresponding to the ORF (open reading frame) of cDNA; expressed in transfected cells; host or cells: CHO DG44
Protocol: The PCR product was cloned into the known animal cell expression vector x0GC/dhfr, thereby constructing the recombinant vector x0GC/GCGR.
The recombinant vector x0GC/GCGR was introduced into a CHO DG44 cell line, cultured in DMEM/F12 (10% FBS) medium, using lipofectamine (Invitrogene, USA), to obtain a transformant. The transformant was incubated in a selective medium containing 1 mg/mL G418 and 10 nM methotraxate, and monoclonal cell lines were selected therefrom.
(§1) The cultured cells were washed with KRB buffer, suspended in 40 ml of 1 mM IBMX-containing KRB buffer, and then allowed to stand at room temperature for 5 minutes. […] Then, 20 ml of cell lysis buffer was added to lyse the cells, and the concentration of cAMP in each of the cell lysates was measured using a cAMP assay kit (Molecular Device, USA).

[2] = molecular target: T2, human GLP-1 receptor (Homo sapiens, UniProt P43220); assay: cAMP response in CHO cells expressing GLP-1 receptor (CHO/GLP-1R); assay type: cell-based
T2 construct: Using a portion corresponding to the ORF (open reading frame) of cDNA; expressed in transfected cells; host or cells: CHO DG44
Protocol: The PCR product was cloned into the known animal cell expression vector x0GC/dhfr, thereby constructing the recombinant vector x0GC/GLP-1R.
The recombinant vector x0GC/GLP-1R was introduced into a CHO DG44 cell line, cultured in DMEM/F12 (10% FBS) medium, using lipofectamine (Invitrogene, USA), to obtain a transformant. The transformant was incubated in a selective medium containing 1 mg/mL G418 and 10 nM methotraxate, and monoclonal cell lines were selected therefrom.
as §1

[3] = test system: high-fat diet-induced hyperlipidemia hamsters; assay: Reduction in lipid levels in hyperlipidemia model hamsters (Example 5); assay type: in vivo, Golden Syrian hamsters; details: vs high-fat diet group, s.c. once a week for 2 weeks, 3.25 nmol/kg SEQ ID NO: 25-Fc or 8.96 nmol/kg SEQ ID NO: 23-Fc
Text: 8 week-old male hamsters (Golden Syrian hamsters, 120-130 g) were purchased from Vital River China. It is known that hamsters show blood lipid profiles similar to humans, unlike other rodents, and are sensitive to high-fat diets.
The animals were allowed access to a sterilized high-fat diet (Purina 5001 containing 11.5% maize oil, 11.5% coconut oil, 0.5% cholesterol, and 0.25% deoxycholate; Dyets, Bethlehem, Pa.) or a standard rodent diet (low fat, 2018; Harlan Teklad, Madison, Wis.). A normal diet group was allowed access to filtered and UV-sterilized tap water, and a high-fat diet group was allowed access to water containing 10% fructose. The animals were kept in a breeding chamber satisfying GLP standards under a 12-hr light/12-hr dark cycle (lighting: am 6 to pm 6), and all the experimental procedures were performed according to the standard guideline for animal experiments. Drug administration was started after 3 weeks of hyperlipidemia induction, and the animals were divided into four groups (n=6) as shown in Table 3 below.
Group 3 (hyperlipidemia-induced group+group administered with 3.25 nmol/kg of SEQ ID NO: 25-Fc conjugate) was fed with a high-fat diet to induce hyperlipidemia, and then administered with 3.25 nmol/kg of the SEQ ID NO: 25-Fc conjugate (prepared in Example 4) once a week at an injection dose of 5 ml/kg.
Group 4 (hyperlipidemia-induced group+group administered with 8.96 nmol/kg of SEQ ID NO: 23-Fc conjugate) was fed with a high-fat diet to induce hyperlipidemia, and then administered with 8.96 nmol/kg of the SEQ ID NO: 23-Fc conjugate (prepared in Example 3) once a week at an injection dose of 5 ml/kg.
Saline or the drug was administered into each group (n=6) for 2 weeks, and then the effects thereof on a reduction in lipid levels were analyzed.
Blood was collected from the hamsters which were administered or not administered with the long-acting oxyntomodulin derivative as described in Example 5-1, and the lipid levels of the blood were analyzed using HITACHI 7020.
FIGS. 1 to 5 show the change in blood triglyceride levels (FIG. 1), the change in blood total cholesterol levels (FIG. 2), the change in LDL-cholesterol levels (FIG. 3), blood HDL-cholesterol levels (FIG. 4), and the change in the blood HDL/LDL-cholesterol ratio (FIG. 5). The obtained results were statistically processed, and the mean values and the standard deviations of the mean values were calculated. In the verification of significance between the groups (n=6), data were statistically processed using Dunnett's test of one-way ANOVA, and a value of p<0.05 was considered statistically significant.

[4] = test system: high-fat diet-induced hyperlipidemia hamsters; assay: Blood lipid levels in high-fat diet hamsters, comparison with VICTOZA (Example 6); assay type: in vivo, Golden Syrian hamsters; details: vs 35.5 nmol/kg VICTOZA s.c., 3.25 nmol/kg SEQ ID NO: 25-Fc or 8.96 nmol/kg SEQ ID NO: 23-Fc s.c.
Protocol: The effect of reducing lipid levels was compared between the oxyntomodulin derivative conjugate and known VICTOZA®.
As described in Example 5, hamsters were divided into a normal hamster group and hamster groups fed with a high-fat diet. The normal hamster group was administered subcutaneously with 5 ml/kg of DPBS once or more a week. The hamster groups fed with high-fat diet were divided into a group administered subcutaneously with 5 ml/kg of DPBS once or more a week, a group administered subcutaneously with 35.5 nmol/kg of VICTOZA® once or more a week, a group administered subcutaneously with 3.25 nmol/kg of the SEQ ID NO: 25-Fc conjugate, and a group administered subcutaneously with 8.96 nmol/kg of the SEQ ID NO:23-Fc conjugate, and the blood lipid levels of the groups were analyzed.

T2 sequence (P43220 24-463): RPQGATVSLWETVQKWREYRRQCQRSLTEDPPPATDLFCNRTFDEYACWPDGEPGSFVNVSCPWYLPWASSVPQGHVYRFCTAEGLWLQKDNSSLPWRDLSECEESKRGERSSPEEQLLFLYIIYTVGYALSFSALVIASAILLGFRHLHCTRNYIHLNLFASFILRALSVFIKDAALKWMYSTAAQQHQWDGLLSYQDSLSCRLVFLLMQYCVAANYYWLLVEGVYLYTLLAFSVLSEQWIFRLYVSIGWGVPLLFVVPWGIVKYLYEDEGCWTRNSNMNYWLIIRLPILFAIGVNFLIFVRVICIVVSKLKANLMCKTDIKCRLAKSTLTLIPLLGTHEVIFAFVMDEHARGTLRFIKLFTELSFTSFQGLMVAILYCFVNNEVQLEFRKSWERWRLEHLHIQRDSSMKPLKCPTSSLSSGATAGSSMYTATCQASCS
T1 sequence (P47871 26-477): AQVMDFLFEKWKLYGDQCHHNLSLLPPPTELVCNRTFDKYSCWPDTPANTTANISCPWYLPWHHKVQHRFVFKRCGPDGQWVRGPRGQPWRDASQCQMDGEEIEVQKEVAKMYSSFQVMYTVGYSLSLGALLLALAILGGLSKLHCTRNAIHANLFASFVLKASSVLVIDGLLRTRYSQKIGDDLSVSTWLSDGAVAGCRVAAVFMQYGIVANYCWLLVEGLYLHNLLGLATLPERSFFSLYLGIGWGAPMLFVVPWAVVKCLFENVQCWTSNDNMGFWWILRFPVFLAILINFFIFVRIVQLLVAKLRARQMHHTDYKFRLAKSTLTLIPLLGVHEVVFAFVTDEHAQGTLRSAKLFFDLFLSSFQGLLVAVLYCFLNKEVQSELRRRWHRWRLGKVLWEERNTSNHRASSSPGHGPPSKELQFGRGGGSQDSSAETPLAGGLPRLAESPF

Compound	pEC50 [1]	pEC50 [2]	blood triglyceride levels ([3]; FIG. 1)	blood total cholesterol levels ([3]; FIG. 2)	blood LDL-cholesterol levels ([3]; FIG. 3)	blood HDL-cholesterol levels ([3]; FIG. 4)	blood HDL/LDL-cholesterol ratio ([3]; FIG. 5)	blood total cholesterol levels compared to VICTOZA ([4]; FIG. 6)	blood LDL-cholesterol level compared to VICTOZA ([4]; FIG. 7)	blood HDL-cholesterol levels compared to VICTOZA ([4]; FIG. 8)	HDL/LDL-cholesterol ratio compared to VICTOZA ([4]; FIG. 9)	blood triglyceride levels compared to VICTOZA ([4]; FIG. 10)
CSCC[C@H](NC(=O)[C@H](CC(C)C)NC(=O)[C@H](Cc1c[nH]c2ccccc12)NC(=O)[C@H](CS)NC(=O)[C@@H](NC(=O)[C@H](Cc1ccccc1)NC(=O)[C@H](CCC(=O)O)NC(=O)[C@H](CCCCN)NC(=O)[C@H](C)NC(=O)[C@H](CCCNC(=N)N)NC(=O)[C@H](CCCCN)NC(=O)[C@H](CCC(=O)O)NC(=O)[C@H](CC(=O)O)NC(=O)[C@H](CC(C)C)NC(=O)[C@H](Cc1ccc(O)cc1)NC(=O)[C@H](CCCCN)NC(=O)[C@H](CO)NC(=O)[C@H](Cc1ccc(O)cc1)NC(=O)[C@H](CC(=O)O)NC(=O)[C@H](CO)NC(=O)[C@@H](NC(=O)[C@H](Cc1ccccc1)NC(=O)[C@@H](NC(=O)CNC(=O)[C@H](CCC(N)=O)NC(=O)C(C)(C)NC(=O)[C@@H](N)Cc1c[nH]cn1)[C@@H](C)O)[C@@H](C)O)C(C)C)C(=O)N[C@@H](CC(N)=O)C(=O)N[C@H](C(=O)O)[C@@H](C)O [SEQ ID NO: 23] (H-H[Aib]QGTFTSDYSKYLDEKRAKEFVCWLMNT-OH; C-terminus assumed)	8.24	8.61	–	–	–	–	–	–	–	–	–	–
SEQ ID NO: 25-Fc conjugate: oxyntomodulin derivative of SEQ ID NO: 25 linked at cysteine 30 via MAL-10K-ALD PEG to immunoglobulin Fc (Example 4) (HXQGTFTSDYSKYLDEKRAKEFVQWLMNTC; PEG linker at Cys30 to immunoglobulin Fc; MOD_RES (2)..(2) Aib; (16)..(20) Ring formation between residues)	–	–	significantly decreased	significantly decreased	significantly decreased	significant increase	significant increase	decrease	decrease	significant increases	significant increases	decrease
